These are literature values, as cited in patent publication US5118493A, “Composition having reduced nephrotoxocity comprising a fatty acid containing component and cyclosporine” (Brigham and Women's Hospital, priority 1991, dated 1992).

For this data set, the system named is rats treated with CSA.

`Cc1c(Cn2ccnc2)c2ccccc2n1CCC(=O)O` [UK-38,485]: the “glomerular filtration rate (GFR)” value was “improved” and the “urinary TxB2 levels” value was “comparable to control levels”.
